One may read the Kd as a measure of binding affinity in units of concentration.

Active and inactive are the calls of the source. Rule as the data show it, for most assays here: actives have a measured Kd and inactives only a lower limit.

For experiment [1], the target named is Glycogen synthase kinase-3 beta (Homo sapiens, UniProt P49841).
In experiment [2] the target is Mitogen-activated protein kinase 11 (Homo sapiens, UniProt Q15759).
Experiment [3] concerns the target GTP-binding protein 4 (Homo sapiens, UniProt Q9BZE4).
The target of experiment [4] is T1, Serine/threonine-protein kinase LATS1 (Homo sapiens, UniProt O95835).
T1 sequence (O95835 whole entry): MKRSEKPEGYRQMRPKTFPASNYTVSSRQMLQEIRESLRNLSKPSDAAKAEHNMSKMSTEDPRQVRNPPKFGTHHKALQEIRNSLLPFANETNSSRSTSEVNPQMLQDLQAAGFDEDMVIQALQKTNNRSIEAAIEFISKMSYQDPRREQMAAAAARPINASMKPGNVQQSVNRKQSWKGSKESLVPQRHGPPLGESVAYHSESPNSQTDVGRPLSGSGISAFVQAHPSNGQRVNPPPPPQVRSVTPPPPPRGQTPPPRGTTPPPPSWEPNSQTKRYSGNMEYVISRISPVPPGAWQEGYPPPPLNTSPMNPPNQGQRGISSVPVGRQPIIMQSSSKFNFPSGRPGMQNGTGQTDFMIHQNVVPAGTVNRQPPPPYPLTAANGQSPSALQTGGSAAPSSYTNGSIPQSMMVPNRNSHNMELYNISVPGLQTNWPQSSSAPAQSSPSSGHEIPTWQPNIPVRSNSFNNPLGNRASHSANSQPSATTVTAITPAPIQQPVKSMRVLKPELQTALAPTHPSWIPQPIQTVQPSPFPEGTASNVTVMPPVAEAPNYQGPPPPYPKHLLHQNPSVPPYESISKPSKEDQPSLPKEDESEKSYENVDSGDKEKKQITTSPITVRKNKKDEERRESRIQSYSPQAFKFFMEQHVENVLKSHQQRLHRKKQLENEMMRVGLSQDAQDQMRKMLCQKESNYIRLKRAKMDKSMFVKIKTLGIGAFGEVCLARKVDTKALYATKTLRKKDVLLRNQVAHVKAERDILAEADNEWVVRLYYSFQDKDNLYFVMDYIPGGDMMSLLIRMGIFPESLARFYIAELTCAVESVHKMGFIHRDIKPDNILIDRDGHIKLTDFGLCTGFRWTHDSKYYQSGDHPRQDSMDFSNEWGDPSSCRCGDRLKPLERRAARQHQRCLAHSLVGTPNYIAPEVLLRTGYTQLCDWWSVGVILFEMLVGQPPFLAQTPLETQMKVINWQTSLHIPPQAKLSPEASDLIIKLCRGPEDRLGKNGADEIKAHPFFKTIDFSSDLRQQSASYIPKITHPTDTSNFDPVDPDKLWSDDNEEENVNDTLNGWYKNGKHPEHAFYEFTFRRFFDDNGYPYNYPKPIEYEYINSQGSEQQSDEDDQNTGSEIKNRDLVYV

Experiment [5] has as its target T2, Mitogen-activated protein kinase kinase kinase kinase 3 (Homo sapiens, UniProt Q8IVH8).
T2 sequence (Q8IVH8 whole entry): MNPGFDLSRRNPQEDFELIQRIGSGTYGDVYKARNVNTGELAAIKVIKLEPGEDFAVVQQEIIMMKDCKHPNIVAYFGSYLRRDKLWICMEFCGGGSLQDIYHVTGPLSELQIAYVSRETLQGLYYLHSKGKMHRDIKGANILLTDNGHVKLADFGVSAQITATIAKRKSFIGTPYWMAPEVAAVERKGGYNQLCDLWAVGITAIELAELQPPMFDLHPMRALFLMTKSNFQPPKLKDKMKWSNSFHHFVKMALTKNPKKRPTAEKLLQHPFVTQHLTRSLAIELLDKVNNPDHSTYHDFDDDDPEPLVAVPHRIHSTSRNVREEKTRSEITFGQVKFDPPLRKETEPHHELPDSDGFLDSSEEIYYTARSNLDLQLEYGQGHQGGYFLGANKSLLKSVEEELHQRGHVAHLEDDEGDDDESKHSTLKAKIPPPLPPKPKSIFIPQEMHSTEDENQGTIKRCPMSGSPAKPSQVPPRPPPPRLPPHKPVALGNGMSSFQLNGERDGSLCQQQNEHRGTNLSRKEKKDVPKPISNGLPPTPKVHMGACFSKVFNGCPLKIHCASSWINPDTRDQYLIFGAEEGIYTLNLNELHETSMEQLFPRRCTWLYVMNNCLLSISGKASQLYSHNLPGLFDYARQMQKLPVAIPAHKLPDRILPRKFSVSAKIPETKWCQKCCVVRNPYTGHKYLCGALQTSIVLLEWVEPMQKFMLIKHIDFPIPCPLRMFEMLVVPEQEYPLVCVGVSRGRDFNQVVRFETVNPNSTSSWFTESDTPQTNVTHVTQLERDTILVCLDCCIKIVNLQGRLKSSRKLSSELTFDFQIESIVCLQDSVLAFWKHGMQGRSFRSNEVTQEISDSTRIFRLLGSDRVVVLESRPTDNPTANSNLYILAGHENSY

Experiment [6] addresses Serine/threonine-protein kinase ATR (Homo sapiens, UniProt Q13535).
The target in experiment [7] is Tyrosine-protein kinase CSK (Homo sapiens, UniProt P41240).
Experiment [8] has as its target Mitogen-activated protein kinase 14 (Homo sapiens, UniProt Q16539).
Experiment [9] addresses GTP-binding nuclear protein Ran (Homo sapiens, UniProt P62826).
Also: in the data inactive means no Kd found up to 30 µM.

Sequence of Glycogen synthase kinase-3 beta (P49841 whole entry): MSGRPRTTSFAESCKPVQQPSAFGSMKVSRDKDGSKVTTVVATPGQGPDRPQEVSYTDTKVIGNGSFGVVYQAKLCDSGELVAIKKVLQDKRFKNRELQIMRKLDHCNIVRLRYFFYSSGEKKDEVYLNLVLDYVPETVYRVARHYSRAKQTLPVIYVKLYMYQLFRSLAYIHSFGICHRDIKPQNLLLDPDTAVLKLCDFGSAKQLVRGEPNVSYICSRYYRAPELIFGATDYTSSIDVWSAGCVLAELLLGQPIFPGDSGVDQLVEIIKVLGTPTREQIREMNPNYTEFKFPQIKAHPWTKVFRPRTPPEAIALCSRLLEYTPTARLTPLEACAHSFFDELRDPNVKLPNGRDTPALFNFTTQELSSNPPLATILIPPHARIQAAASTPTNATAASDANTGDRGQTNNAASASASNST
Sequence of Mitogen-activated protein kinase 14 (Q16539 whole entry): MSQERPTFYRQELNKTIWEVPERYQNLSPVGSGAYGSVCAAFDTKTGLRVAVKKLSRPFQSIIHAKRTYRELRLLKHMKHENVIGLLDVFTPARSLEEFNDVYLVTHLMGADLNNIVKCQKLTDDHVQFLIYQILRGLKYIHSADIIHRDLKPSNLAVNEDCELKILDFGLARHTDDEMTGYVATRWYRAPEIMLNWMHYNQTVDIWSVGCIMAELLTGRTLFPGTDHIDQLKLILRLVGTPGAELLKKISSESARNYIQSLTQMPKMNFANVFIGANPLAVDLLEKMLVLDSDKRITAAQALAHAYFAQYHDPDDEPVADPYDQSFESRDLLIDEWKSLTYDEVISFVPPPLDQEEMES
Sequence of Tyrosine-protein kinase CSK (P41240 whole entry): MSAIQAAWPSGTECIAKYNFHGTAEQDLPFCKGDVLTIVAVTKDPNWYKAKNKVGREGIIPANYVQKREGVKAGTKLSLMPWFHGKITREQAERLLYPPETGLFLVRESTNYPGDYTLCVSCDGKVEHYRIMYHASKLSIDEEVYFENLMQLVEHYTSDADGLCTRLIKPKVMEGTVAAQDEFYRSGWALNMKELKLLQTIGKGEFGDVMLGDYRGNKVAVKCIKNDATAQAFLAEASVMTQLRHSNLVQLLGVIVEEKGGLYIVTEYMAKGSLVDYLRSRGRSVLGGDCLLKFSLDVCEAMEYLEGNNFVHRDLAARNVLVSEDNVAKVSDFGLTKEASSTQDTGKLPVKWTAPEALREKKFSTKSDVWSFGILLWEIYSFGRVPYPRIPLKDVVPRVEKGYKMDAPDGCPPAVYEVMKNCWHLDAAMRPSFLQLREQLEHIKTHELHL
Sequence of Mitogen-activated protein kinase 11 (Q15759 whole entry): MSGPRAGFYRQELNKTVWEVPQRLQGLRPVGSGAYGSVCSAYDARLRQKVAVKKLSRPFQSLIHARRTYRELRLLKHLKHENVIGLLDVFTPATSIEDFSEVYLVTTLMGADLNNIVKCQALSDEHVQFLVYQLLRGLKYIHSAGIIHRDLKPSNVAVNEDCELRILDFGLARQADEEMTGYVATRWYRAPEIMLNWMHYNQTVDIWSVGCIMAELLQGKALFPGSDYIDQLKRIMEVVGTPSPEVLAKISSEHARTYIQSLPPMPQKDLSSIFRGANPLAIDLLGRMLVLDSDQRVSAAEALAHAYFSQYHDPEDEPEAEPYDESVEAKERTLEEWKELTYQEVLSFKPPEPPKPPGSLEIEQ
Sequence of Serine/threonine-protein kinase ATR (Q13535 whole entry): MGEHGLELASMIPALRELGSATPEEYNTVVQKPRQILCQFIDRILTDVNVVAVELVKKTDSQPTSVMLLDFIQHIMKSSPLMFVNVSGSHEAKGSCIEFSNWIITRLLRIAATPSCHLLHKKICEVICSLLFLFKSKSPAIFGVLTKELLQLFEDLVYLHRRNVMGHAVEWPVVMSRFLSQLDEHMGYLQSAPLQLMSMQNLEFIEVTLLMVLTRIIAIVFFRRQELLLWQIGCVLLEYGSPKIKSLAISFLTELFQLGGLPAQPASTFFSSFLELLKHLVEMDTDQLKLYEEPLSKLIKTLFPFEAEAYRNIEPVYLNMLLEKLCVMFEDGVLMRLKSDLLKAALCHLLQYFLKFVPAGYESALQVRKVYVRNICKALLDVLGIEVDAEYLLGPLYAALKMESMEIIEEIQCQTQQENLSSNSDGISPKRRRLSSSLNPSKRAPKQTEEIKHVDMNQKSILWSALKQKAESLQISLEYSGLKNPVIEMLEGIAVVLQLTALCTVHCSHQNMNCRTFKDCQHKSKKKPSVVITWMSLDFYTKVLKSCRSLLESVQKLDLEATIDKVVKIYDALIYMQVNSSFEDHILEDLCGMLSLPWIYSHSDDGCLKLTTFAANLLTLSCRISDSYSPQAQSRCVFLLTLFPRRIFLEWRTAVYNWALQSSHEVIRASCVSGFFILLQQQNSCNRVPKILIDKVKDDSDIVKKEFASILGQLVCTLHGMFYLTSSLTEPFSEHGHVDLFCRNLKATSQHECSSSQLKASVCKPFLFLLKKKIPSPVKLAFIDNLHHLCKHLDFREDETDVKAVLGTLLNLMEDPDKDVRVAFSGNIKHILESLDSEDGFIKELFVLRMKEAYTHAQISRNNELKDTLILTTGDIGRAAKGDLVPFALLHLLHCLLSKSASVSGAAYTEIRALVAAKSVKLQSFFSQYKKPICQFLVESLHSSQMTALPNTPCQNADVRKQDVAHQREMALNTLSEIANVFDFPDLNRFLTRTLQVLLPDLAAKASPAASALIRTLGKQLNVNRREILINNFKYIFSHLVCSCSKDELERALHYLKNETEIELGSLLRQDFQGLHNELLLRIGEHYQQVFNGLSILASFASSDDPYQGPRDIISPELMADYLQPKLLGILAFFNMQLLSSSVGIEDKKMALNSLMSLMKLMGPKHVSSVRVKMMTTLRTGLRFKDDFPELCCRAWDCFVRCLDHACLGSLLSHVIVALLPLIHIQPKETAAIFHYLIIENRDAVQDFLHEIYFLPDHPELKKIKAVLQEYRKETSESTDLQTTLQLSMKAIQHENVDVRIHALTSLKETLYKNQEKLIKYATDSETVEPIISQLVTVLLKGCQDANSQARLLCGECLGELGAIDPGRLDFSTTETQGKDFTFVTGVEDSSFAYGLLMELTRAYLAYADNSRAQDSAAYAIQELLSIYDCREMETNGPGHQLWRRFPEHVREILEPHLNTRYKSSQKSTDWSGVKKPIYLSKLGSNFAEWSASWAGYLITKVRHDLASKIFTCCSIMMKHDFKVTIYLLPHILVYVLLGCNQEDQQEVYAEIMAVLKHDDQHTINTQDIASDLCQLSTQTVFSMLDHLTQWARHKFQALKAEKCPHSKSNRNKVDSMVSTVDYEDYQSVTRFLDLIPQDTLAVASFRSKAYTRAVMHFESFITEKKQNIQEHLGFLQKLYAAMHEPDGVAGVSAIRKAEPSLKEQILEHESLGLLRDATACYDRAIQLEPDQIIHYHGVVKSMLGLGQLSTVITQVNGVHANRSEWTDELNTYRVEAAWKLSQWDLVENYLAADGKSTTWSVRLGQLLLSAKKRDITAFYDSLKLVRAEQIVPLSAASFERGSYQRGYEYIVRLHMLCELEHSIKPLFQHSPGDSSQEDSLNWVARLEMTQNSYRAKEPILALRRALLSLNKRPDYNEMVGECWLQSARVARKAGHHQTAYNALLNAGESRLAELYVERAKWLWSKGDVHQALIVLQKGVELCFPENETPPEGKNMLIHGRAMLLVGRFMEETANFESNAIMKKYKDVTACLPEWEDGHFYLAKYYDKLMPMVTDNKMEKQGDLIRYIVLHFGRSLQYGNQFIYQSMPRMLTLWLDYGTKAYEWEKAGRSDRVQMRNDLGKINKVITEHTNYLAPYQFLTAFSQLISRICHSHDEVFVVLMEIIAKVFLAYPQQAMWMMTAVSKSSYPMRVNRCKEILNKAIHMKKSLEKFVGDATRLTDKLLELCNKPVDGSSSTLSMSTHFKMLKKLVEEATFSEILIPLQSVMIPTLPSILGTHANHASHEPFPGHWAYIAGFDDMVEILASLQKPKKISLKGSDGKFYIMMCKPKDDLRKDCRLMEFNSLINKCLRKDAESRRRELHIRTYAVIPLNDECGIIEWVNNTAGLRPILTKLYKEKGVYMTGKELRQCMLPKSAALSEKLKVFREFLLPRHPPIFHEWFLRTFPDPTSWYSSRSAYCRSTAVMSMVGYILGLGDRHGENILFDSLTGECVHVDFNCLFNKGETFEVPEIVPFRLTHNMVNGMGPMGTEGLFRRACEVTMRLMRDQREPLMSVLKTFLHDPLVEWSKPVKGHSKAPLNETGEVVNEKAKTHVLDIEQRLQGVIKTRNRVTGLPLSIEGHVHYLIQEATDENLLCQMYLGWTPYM

As for `CNC(=O)c1cc(COc2nnc(Nc3ccc(Cl)cc3)c3ccoc23)ccn1` [TELATINIB], the Kd in experiment [1], in experiment [2], in experiment [3], in experiment [4], in experiment [5] and in experiment [6] was > 30 µM (inactive) throughout. The Kd in experiment [7], in [8] and in experiment [9] was > 30 µM (inactive) in each case.

Regarding `COc1cc(F)c(F)c(Nc2ccc(I)cc2F)c1NS(=O)(=O)C1(C[C@H](O)CO)CC1` [REFAMETINIB], the Kd in experiment [1], in experiment [2], in experiment [3], in [4], in experiment [5] and in experiment [6] was > 30 µM (inactive) throughout. Moreover, the Kd in experiment [7], in experiment [8] and in experiment [9] was > 30 µM (inactive) in each case.

In the case of `Cc1ccc(C(=O)Nc2ccc(Oc3cc4cnn(C)c4cc3-c3cn[nH]c3)c(F)c2)c(=O)n1-c1ccc(F)cc1` [MERESTINIB], the Kd in [1], in experiment [2], in experiment [3], in [4], in [5] and in experiment [6] was > 30 µM (inactive) throughout. For the same compound, the Kd in experiment [7], in [8] and in experiment [9] was > 30 µM (inactive) each time.

For the compound `COc1cc(Nc2ncc(F)c(Nc3ccc4c(n3)N(COP(=O)(O)O)C(=O)C(C)(C)O4)n2)cc(OC)c1OC` [FOSTAMATINIB], the Kd in experiment [1] is > 30 µM (inactive); in experiment [2], > 30 µM (inactive); in [3], > 30 µM (inactive); in experiment [4], 2.16 µM (active); in experiment [5], > 30 µM (inactive); in experiment [6], > 30 µM (inactive). For the same compound, the Kd in experiment [7], in experiment [8] and in experiment [9] was > 30 µM (inactive) throughout.

On to `O[C@H]1CC[C@H](Nc2ncc3nc(Nc4c(F)cc(F)cc4F)n([C@H]4CCOC4)c3n2)CC1` [TANZISERTIB], for which the Kd in experiment [1], in [2], in experiment [3], in experiment [4], in experiment [5] and in [6] was > 30 µM (inactive) in each case. Also, the Kd in experiment [7] was > 30 µM (inactive); in experiment [8], 0.729 µM (active); in experiment [9], > 30 µM (inactive).

The record behind these values is ChEMBL document CHEMBL3991601, “The target landscape of clinical kinase drugs” (Science, 2017).
